From publication PMC6407917, “Identification of GSK3186899/DDD853651 as a Preclinical Development Candidate for the Treatment of Visceral Leishmaniasis” (Journal of Medicinal Chemistry, 2018)

Columns and labels:
Experiment in all cases: biochemical
Parameters in all cases: species or system HEK293/K-562/placenta mixed human extract; Kinobeads chemoproteomic competition binding, quantified by TMT LC-MS/MS, dose response up to 20 uM
PTK2B = PTK2B (Homo sapiens, UniProt Q14289)
YWHAZ = YWHAZ (Homo sapiens, UniProt P63104)
ITK = ITK (Homo sapiens, UniProt Q08881)
PRKX = PRKX (Homo sapiens, UniProt P51817)
NEK7 = NEK7 (Homo sapiens, UniProt Q8TDX7)
PRKAR2B = PRKAR2B (Homo sapiens, UniProt P31323)
MYLK3 = MYLK3 (Homo sapiens, UniProt Q32MK0)
STK38 = STK38 (Homo sapiens, UniProt Q15208)
ULK3 = ULK3 (Homo sapiens, UniProt Q6PHR2)
EPHA1 = EPHA1 (Homo sapiens, UniProt P21709)
MAPKAPK3 = MAPKAPK3 (Homo sapiens, UniProt Q16644)
STRADA = STRADA (Homo sapiens, UniProt Q7RTN6)
RPS6KA3 = RPS6KA3 (Homo sapiens, UniProt P51812)
IKBKG = IKBKG (Homo sapiens, UniProt Q9Y6K9)
PTK2 = PTK2 (Homo sapiens, UniProt Q05397)
CSNK1D = CSNK1D (Homo sapiens, UniProt P48730)
SGK3 = SGK3 (Homo sapiens, UniProt Q96BR1)
PIK3C2B = PIK3C2B (Homo sapiens, UniProt O00750)
STK17B = STK17B (Homo sapiens, UniProt O94768)
TYRO3 = TYRO3 (Homo sapiens, UniProt Q06418)
PHKG2 = PHKG2 (Homo sapiens, UniProt P15735)

NEK7, sequence (Q8TDX7 whole entry): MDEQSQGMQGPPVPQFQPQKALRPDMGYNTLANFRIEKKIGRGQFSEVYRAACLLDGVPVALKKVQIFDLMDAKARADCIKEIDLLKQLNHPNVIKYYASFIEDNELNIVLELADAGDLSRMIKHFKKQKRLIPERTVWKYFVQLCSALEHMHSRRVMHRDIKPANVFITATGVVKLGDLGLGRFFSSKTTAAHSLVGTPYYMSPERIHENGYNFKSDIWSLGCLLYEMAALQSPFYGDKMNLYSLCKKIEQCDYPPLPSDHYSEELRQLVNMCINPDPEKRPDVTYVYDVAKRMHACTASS
STRADA, sequence (Q7RTN6 whole entry): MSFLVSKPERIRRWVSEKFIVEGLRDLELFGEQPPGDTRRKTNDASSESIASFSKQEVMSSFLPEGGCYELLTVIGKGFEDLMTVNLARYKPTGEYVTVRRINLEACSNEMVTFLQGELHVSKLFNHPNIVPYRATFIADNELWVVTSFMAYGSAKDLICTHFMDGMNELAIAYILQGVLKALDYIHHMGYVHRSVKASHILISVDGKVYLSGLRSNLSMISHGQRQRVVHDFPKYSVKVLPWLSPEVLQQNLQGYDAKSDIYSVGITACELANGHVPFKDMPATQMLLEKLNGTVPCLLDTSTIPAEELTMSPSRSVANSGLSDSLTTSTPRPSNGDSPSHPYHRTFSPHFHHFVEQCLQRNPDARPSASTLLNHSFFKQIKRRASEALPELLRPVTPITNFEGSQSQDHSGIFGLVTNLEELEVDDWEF
PTK2, sequence (Q05397 whole entry): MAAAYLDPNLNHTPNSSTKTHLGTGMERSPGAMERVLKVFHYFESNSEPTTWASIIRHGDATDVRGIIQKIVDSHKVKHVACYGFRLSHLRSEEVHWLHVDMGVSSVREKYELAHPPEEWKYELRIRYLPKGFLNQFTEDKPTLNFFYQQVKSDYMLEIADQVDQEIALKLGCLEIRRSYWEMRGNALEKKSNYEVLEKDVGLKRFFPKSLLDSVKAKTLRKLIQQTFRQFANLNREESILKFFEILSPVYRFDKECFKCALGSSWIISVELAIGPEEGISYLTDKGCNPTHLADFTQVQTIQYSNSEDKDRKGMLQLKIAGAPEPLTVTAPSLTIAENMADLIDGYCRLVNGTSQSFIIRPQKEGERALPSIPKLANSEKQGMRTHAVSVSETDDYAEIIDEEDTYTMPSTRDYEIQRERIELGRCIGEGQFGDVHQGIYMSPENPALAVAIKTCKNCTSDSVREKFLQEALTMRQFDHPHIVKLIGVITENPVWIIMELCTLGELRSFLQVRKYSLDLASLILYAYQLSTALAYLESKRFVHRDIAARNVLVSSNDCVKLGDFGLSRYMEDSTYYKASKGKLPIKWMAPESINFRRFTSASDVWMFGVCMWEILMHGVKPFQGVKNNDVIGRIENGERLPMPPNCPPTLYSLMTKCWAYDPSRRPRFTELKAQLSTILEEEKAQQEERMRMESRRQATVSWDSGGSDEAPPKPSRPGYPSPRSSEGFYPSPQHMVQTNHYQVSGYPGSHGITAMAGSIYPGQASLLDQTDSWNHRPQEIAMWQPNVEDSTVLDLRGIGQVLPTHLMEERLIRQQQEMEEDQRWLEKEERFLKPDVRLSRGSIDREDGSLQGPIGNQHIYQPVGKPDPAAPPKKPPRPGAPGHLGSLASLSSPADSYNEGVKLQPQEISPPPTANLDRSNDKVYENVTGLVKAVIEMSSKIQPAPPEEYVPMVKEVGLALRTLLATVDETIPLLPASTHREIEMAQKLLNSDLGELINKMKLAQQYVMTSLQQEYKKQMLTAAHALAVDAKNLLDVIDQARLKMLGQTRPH
ITK, sequence (Q08881 whole entry): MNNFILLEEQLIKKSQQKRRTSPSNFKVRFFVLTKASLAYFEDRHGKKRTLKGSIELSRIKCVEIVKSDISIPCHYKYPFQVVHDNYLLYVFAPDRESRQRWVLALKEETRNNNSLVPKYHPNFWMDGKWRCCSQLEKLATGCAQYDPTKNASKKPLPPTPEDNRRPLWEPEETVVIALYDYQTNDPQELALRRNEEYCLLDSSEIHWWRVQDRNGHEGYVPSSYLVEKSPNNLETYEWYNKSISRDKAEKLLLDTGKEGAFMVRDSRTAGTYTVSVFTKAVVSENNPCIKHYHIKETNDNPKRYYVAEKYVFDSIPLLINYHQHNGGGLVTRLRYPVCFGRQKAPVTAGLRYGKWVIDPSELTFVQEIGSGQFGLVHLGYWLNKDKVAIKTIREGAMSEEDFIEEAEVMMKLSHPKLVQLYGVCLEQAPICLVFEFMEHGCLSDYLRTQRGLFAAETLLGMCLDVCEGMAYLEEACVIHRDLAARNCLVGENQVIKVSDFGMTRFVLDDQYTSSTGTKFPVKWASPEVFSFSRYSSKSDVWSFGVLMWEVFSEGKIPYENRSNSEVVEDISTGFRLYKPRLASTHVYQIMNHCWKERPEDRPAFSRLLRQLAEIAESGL
SGK3, sequence (Q96BR1 whole entry): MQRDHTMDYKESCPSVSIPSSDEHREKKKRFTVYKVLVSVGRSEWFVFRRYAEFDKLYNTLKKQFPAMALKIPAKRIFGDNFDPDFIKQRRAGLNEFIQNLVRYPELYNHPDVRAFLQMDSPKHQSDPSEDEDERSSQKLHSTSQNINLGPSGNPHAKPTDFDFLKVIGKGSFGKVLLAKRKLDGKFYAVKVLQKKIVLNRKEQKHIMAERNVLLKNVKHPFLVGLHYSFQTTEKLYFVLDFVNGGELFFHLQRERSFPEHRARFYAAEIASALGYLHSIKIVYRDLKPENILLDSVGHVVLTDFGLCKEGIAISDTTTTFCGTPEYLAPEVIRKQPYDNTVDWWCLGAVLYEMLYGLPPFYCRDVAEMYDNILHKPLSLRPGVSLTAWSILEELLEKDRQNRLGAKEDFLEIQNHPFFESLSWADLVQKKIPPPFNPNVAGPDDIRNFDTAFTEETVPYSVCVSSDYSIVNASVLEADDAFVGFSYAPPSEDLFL
PRKX, sequence (P51817 whole entry): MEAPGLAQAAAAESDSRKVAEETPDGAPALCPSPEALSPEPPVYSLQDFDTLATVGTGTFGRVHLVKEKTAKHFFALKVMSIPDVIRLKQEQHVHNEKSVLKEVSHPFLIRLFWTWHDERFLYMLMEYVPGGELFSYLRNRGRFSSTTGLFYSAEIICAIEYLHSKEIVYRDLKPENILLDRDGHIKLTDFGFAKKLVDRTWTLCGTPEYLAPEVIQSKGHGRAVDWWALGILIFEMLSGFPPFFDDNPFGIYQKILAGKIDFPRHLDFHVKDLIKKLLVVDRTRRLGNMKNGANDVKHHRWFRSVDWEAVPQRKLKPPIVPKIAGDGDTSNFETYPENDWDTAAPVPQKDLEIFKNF
STK17B, sequence (O94768 whole entry): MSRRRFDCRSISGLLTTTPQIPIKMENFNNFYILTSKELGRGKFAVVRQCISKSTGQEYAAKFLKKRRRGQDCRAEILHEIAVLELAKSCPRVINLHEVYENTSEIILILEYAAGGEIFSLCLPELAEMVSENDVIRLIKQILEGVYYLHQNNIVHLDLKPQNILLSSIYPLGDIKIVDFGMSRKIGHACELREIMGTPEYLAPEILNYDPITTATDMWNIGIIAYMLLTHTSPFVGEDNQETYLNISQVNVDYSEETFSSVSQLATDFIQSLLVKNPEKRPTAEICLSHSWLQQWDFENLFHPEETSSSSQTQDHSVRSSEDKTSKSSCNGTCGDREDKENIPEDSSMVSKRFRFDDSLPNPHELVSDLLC
MAPKAPK3, sequence (Q16644 whole entry): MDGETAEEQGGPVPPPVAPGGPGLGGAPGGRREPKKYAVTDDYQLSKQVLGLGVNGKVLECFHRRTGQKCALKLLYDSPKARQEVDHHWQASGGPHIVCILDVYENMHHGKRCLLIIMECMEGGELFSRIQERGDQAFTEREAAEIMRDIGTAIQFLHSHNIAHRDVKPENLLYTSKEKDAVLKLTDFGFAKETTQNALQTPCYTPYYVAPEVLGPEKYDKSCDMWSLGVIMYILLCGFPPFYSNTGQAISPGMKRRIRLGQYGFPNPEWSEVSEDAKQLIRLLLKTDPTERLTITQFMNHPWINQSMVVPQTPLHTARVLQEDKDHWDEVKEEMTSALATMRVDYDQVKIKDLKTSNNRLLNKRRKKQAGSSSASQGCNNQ
ULK3, sequence (Q6PHR2 whole entry): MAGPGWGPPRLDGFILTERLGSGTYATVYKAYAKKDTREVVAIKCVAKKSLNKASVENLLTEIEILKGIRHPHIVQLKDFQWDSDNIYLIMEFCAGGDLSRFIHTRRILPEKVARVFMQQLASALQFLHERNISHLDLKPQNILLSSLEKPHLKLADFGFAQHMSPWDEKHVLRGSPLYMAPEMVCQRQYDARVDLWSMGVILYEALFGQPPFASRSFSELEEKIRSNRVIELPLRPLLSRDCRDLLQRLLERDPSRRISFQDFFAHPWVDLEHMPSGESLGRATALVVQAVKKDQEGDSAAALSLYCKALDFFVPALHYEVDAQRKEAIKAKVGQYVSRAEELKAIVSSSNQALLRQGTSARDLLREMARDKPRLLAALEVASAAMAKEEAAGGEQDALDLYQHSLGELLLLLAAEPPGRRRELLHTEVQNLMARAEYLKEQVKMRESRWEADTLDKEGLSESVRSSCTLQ
YWHAZ, sequence (P63104 whole entry): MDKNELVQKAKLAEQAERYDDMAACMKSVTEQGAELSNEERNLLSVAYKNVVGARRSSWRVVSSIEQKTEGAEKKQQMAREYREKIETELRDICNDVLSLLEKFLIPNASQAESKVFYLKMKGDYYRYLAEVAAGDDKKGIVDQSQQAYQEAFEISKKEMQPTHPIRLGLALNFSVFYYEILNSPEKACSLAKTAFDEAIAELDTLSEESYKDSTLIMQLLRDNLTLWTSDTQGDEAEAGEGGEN

IC50 (PTK2B): ≥ 20 µM
IC50 (YWHAZ): ≥ 20 µM
IC50 (ITK): ≥ 20 µM
IC50 (PRKX): ≥ 20 µM
IC50 (NEK7): ≥ 20 µM
IC50 (PRKAR2B): ≥ 20 µM
IC50 (MYLK3): ≥ 20 µM
IC50 (STK38): ≥ 20 µM
IC50 (ULK3): ≥ 20 µM
IC50 (EPHA1): ≥ 20 µM
IC50 (MAPKAPK3): ≥ 20 µM
IC50 (STRADA): ≥ 20 µM
IC50 (RPS6KA3): ≥ 20 µM
IC50 (IKBKG): ≥ 20 µM
IC50 (PTK2): ≥ 20 µM
IC50 (CSNK1D): ≥ 20 µM
IC50 (SGK3): ≥ 20 µM
IC50 (PIK3C2B): ≥ 20 µM
IC50 (STK17B): ≥ 20 µM
IC50 (TYRO3): ≥ 20 µM
IC50 (PHKG2): ≥ 20 µM
SMILES: COc1ccccc1-c1n[nH]c2nc(N[C@H]3CC[C@H](NS(=O)(=O)CCC(F)(F)F)CC3)nc(OC)c12 [compound 31, 3,3,3-Trifluoro-N-(trans-4-((4-methoxy-3-(2-methoxyphenyl)-1H-pyrazolo[3,4-d]pyrimidin-6-yl)amino)cyclohexyl)propane-1-sulfonamide]
